Test results as given in ChEMBL document CHEMBL1201862, “PubChem BioAssay data set” (2004).
The source made the active and inactive calls.

Legend:
[1] = target: Fructose-bisphosphate aldolase (Mycobacterium tuberculosis, UniProt P9WQA3); assay: Fluorescence-based biochemical high throughput dose response assay for inhibitors of the fructose-bisphosphate aldolase (FBA) of M. tuberculosis.; type: functional
[2] = target: Tyrosine-protein phosphatase non-receptor type 5 (Homo sapiens, UniProt P54829); assay: STEP phosphatase inhibitors, confirmation, biochemical, fluorescence intensity, uHTS hits (AID 602372); type: functional; conditions: read-out: IC50_Mean
Tyrosine-protein phosphatase non-receptor type 5, sequence (P54829 whole entry): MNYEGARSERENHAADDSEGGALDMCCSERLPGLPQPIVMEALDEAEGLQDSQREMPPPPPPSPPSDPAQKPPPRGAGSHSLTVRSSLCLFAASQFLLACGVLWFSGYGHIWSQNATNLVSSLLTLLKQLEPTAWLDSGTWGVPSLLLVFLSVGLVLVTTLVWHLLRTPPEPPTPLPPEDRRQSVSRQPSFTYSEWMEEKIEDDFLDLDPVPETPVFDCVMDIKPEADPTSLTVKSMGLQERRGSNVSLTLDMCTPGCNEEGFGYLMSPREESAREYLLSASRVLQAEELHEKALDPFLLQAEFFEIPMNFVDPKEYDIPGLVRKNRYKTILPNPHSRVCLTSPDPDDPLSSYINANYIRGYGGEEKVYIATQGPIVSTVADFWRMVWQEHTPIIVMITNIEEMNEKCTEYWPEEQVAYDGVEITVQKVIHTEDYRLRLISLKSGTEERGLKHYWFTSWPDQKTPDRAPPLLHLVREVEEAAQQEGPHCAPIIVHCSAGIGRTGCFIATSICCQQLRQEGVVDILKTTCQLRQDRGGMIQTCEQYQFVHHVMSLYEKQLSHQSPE

[3] = target: Tyrosine-protein phosphatase non-receptor type 11 (Homo sapiens, UniProt Q06124); assay: SHP2 phosphatase inhibition, dose response, selectivity assay for STEP inhibitor project, biochemical (AID 602367); type: functional; conditions: read-out: IC50_Mean
Tyrosine-protein phosphatase non-receptor type 11, sequence (Q06124 whole entry): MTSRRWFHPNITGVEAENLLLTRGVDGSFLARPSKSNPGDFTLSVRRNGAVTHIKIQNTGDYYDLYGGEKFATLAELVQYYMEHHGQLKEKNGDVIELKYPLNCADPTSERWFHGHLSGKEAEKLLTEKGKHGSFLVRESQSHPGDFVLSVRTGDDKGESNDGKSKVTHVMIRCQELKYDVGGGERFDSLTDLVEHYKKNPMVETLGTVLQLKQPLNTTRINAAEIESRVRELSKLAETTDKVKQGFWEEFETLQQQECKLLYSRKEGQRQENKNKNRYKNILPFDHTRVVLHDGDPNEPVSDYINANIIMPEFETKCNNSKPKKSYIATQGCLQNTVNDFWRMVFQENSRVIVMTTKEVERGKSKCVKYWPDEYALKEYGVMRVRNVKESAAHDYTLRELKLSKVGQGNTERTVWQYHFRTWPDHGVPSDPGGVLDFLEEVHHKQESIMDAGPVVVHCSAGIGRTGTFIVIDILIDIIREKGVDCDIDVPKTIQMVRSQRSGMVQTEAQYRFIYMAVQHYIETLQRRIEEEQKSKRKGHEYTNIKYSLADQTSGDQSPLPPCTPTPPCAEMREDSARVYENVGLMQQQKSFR

[4] = target: Dual specificity protein phosphatase 3 (Homo sapiens, UniProt P51452); assay: VHR phosphatase inhibition, dose response, selectivity assay for STEP inhibitor project, biochemical (AID 602374); type: functional; conditions: read-out: IC50_Mean
Dual specificity protein phosphatase 3, sequence (P51452 whole entry): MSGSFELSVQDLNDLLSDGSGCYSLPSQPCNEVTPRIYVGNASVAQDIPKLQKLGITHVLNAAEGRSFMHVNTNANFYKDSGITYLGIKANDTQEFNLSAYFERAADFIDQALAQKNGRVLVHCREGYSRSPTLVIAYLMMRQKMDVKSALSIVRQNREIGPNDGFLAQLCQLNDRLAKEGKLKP

A549 = assay: A549 cell toxicity, dose response, cytotoxicity control, plate reader, cherry-pick samples (AID 687028); type: functional, cell-based; conditions: Homo sapiens
Melanocortin receptor 4 = Melanocortin receptor 4 (Homo sapiens, UniProt P32245); type: functional, cell-based;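 also: Cell-based assay with luminescence read-out, confirmatory dose-response testing for agonist activity of biased ligands at MC4R; human U2OS cells with tagged receptor and beta-arrestin; potency of agonists that increase receptor coupling to beta-arrestin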
cells [5] = type: functional, cell-based
[6] = target: T1, Carboxy-terminal domain RNA polymerase II polypeptide A small phosphatase 1 (Homo sapiens, UniProt Q9GZU7); assay: inhibitors of CTDSP1, concentration-response testing, biochemical assay, absorbance-based, actives from ultra-high-throughput screening (AID 540297); type: functional
T1 sequence (Q9GZU7 whole entry): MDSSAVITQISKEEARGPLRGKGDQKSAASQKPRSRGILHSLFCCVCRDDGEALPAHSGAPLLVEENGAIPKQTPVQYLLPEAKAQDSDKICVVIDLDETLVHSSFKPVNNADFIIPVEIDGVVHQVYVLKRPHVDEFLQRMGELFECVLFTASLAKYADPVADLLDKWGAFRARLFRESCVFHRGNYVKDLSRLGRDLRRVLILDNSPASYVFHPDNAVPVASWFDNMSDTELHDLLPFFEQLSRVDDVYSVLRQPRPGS

cells [7] = type: functional, cell-based; remark: listed apart in the source
[8] = target: T2, Methionyl-tRNA synthetase, putative (Trypanosoma brucei brucei, UniProt Q38C91); type: functional, Trypanosoma brucei brucei strain 927/4 GUTat10.1
T2 sequence (Q38C91 whole entry): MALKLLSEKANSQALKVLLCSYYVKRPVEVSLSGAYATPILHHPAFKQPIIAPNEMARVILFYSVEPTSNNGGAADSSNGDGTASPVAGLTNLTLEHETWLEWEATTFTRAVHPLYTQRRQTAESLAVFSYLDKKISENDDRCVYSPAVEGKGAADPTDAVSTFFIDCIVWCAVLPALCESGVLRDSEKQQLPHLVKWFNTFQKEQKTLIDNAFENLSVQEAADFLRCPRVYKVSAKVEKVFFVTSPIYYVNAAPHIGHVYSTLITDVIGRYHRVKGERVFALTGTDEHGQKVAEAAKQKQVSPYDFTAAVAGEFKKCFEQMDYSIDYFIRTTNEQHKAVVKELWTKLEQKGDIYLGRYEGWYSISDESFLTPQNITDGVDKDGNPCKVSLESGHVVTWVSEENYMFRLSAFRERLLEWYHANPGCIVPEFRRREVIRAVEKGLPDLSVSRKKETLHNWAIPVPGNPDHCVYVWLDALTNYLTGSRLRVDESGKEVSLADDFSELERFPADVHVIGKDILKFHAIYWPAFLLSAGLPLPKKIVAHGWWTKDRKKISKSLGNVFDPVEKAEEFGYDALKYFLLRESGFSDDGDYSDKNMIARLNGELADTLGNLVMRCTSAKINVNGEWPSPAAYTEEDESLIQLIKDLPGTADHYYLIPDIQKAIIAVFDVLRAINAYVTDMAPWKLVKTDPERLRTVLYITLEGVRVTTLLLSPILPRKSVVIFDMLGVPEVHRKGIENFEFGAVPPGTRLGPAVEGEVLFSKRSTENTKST

[9] = target: T2, Methionyl-tRNA synthetase, putative; type: functional, Trypanosoma brucei brucei strain 927/4 GUTat10.1; remark: listed apart in the source
[10] = Counterscreen for inhibitors of Trypanosoma brucei methionyl tRNA synthetase (MetRS): Luminescence-based cell-based high throughput dose response assay to identify compounds that are cytotoxic to Jurkat human T lymphocyte cells.; type: functional
[11] = target: T3, DNA repair protein RAD52 homolog (Homo sapiens, UniProt P43351); type: functional, biochemical
T3 sequence (P43351 whole entry): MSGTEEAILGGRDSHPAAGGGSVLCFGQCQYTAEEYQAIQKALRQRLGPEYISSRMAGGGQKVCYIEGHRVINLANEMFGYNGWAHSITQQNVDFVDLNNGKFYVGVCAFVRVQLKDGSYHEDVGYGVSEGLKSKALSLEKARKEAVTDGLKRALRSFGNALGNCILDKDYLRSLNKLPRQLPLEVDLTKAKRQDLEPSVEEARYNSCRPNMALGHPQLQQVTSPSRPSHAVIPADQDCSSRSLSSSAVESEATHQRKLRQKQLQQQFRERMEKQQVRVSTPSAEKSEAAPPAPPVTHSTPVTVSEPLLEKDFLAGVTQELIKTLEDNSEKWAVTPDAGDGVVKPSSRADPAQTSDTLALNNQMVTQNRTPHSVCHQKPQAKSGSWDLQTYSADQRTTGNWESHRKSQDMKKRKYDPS

[12] = target: DNA repair and recombination protein RAD54-like (Homo sapiens, UniProt Q92698); assay: inhibitors of human RAD54 branch migration, confirmation, biochemical, fluorescence, cherry-picked samples, dose series (AID 651657); type: functional
DNA repair and recombination protein RAD54-like, sequence (Q92698 whole entry): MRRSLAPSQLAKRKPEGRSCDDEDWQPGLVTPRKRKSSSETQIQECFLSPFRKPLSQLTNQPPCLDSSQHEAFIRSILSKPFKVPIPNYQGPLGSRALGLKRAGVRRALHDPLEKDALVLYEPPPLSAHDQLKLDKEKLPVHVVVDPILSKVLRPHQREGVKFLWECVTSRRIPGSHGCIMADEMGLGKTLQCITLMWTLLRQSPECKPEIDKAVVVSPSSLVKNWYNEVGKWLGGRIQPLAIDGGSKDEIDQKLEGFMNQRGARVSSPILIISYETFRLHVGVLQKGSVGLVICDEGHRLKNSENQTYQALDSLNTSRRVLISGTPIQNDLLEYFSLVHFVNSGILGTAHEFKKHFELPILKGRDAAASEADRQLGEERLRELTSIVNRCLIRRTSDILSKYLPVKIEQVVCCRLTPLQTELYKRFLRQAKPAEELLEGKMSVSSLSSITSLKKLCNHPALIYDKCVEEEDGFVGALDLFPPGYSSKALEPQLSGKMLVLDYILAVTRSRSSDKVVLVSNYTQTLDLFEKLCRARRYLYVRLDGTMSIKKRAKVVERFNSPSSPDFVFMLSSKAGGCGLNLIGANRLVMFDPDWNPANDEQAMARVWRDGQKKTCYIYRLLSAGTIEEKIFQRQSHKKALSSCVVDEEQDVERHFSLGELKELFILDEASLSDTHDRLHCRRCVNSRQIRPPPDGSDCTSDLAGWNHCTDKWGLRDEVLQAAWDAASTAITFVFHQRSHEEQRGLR

Vero [13] = assay: host cell cytotoxicity of antiviral hits, dose response, cytotoxicity control for West Nile virus antiviral project, secondary assay (AID 1650); type: functional; conditions: Chlorocebus sabaeus
[14] = target: DNA (cytosine-5)-methyltransferase 1 (Homo sapiens, UniProt P26358); assay: DNMT1 methyltransferase inhibitors, confirmation, biochemical, fluorescent molecular beacon (AID 602386); type: functional
[15] = target: T4, Sentrin-specific protease 8 (Homo sapiens, UniProt Q96LD8); type: functional
T4 sequence (Q96LD8 whole entry): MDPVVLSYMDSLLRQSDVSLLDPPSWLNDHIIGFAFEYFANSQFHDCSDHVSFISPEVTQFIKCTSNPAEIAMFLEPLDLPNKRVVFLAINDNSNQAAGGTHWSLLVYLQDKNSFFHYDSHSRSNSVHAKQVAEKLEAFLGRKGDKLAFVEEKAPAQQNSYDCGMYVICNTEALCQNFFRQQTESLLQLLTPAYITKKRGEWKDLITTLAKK

[16] = target: T4, Sentrin-specific protease 8; type: functional; remark: listed apart in the source
[17] = target: T5, Low molecular weight phosphotyrosine protein phosphatase (Homo sapiens, UniProt P24666); type: functional; conditions: read-out: IC50_Mean;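 also: Dose-response confirmation assay measuring inhibition of LMPTP enzyme activity by fluorescence intensity read-out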
T5 sequence (P24666 whole entry): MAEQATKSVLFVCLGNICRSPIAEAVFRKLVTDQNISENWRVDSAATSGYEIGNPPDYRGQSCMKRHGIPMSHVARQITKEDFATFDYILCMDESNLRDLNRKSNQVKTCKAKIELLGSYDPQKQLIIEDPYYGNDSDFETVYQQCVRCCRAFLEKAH

Vero [18] = assay: Vero cell toxicity, dose response, cytotoxicity control, plate reader, cherry-pick samples (AID 687020); type: functional, cell-based; conditions: Chlorocebus sabaeus
Steroidogenic factor 1 = Steroidogenic factor 1 (Homo sapiens, UniProt Q13285); assay: Counterscreen for inverse agonists of the liver receptor homolog-1 (LRH-1; NR5A2): Luminescence-based cell-based high throughput dose response assay to identify inverse agonists of the Steroidogenic Factor 1 Nuclear Receptor (SF1; NR5A1).; type: functional
Steroidogenic factor 1, sequence (Q13285 whole entry): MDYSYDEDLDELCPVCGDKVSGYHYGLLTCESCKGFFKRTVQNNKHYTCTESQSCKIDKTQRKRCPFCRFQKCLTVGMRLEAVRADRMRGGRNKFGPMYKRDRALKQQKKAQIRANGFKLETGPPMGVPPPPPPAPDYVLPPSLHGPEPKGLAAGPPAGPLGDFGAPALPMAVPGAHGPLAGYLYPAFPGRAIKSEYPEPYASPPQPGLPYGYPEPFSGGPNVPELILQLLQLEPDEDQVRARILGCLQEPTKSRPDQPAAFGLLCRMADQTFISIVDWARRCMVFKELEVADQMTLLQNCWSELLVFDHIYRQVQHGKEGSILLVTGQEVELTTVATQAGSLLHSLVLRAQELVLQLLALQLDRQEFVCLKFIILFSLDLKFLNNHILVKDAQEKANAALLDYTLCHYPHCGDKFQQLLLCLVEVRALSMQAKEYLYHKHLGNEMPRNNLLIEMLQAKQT

Beta-lactamase [19] = target: T6, Beta-lactamase (Pseudomonas aeruginosa, UniProt Q79MP6); assay: IMP-1 metallo-beta-lactamase inhibitors, dose response, selectivity assay for VIM-2 inhibitor project, biochemical, epi-absorbance (AID 1920)
T6 sequence (Q79MP6 whole entry): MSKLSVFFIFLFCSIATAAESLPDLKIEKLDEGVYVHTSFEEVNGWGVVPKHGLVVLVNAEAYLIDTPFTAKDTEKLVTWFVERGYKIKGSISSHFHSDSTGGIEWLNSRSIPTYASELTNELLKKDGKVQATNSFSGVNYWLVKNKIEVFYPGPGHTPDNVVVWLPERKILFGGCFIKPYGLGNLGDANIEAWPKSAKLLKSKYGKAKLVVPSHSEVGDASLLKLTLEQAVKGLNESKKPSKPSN

Beta-lactamase [20] = target: T6, Beta-lactamase; assay: […] counterscreen for selective VIM-2 inhibitors: dose response biochemical high throughput screening assay to identify inhibitors of IMP-1 metallo-beta-lactamase.
Beta-lactamase [21] = target: Beta-lactamase (Salmonella choleraesuis (strain SC-B67), UniProt Q5J463); assay: Epi-absorbance-based counterscreen for selective VIM-2 inhibitors: dose response biochemical high throughput screening assay to identify inhibitors of TEM-1 serine-beta-lactamase.
Beta-lactamase (Salmonella choleraesuis (strain SC-B67), UniProt Q5J463), sequence (Q5J463 whole entry): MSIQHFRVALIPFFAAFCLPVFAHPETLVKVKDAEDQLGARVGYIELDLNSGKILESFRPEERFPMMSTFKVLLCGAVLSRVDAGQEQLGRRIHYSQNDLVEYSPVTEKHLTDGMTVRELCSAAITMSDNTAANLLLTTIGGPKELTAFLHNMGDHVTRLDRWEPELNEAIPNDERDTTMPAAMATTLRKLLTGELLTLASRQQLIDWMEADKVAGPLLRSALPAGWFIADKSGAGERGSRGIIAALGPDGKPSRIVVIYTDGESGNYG

Cytochrome P450 3A4 = Cytochrome P450 3A4 (Homo sapiens, UniProt P08684);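 also: CYP3A4 tested as one member of a cytochrome P450 panel screen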
Cytochrome P450 3A4, sequence (P08684 whole entry): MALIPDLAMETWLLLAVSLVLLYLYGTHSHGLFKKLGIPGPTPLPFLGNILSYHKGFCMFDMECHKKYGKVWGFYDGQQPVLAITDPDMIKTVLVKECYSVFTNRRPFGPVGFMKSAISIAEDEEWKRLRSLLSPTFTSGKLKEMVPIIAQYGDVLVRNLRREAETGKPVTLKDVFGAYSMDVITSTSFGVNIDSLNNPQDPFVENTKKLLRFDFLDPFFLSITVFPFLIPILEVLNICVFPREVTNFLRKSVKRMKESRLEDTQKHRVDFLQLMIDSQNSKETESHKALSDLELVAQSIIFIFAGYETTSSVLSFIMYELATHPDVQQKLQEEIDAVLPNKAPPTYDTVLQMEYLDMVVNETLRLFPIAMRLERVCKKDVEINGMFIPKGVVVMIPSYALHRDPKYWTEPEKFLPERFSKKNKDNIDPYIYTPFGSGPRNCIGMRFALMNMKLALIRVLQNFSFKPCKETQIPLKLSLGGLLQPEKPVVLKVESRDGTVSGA

Cytochrome P450 2D6 = Cytochrome P450 2D6 (Homo sapiens, UniProt P10635);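 also: CYP2D6 member of a cytochrome P450 panel assay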
[22] = HeLa cell cytotoxicity, dose response, cytotoxicity control for MgcRacGAP inhibitor project (AID 624300); type: functional
[23] = target: T7, Rac GTPase-activating protein 1 (Homo sapiens, UniProt Q9H0H5); assay: MgcRacGAP GTPase-activating activity inhibitors, confirmation, biochemical, ADP Hunter fluorescence, primary and confirmatory (AID 624330); type: functional
T7 sequence (Q9H0H5 whole entry): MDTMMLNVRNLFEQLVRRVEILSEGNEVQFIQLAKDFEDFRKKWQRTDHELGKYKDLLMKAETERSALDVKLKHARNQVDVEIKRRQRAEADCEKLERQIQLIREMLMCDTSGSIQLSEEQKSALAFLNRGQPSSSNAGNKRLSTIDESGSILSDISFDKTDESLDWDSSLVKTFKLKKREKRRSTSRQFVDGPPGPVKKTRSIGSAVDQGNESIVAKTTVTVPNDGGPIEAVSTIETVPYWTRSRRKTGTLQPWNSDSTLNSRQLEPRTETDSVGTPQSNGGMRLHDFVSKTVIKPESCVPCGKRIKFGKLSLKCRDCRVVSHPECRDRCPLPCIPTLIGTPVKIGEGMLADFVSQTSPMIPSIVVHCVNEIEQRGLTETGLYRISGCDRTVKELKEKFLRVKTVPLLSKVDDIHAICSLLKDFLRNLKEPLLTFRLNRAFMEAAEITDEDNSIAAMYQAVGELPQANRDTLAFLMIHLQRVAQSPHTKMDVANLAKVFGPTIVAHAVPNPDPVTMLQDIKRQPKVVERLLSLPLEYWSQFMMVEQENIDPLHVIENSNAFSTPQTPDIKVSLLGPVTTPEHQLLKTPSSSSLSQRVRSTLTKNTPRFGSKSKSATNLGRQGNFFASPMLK

[24] = target: G-protein coupled receptor 55 (Homo sapiens, UniProt Q9Y2T6); assay: GPR55 antagonists blocking LPI-driven arrestin recruitment, primary screen, imaging, U2OS, beta-arrestin-GFP, LPI agonist (AID 2013); type: functional;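 also: antagonist potency measured as reduced agonist-driven arrestin aggregation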
[25] = target: Mitochondrial peptide methionine sulfoxide reductase (Bos taurus, UniProt P54149); type: functional;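 also: absorbance read-out, biochemical high-throughput dose-response screen for MsrA inhibitors, confirmatory; recombinant bovine MsrA coupled to E. coli TrxB with NADPH and selenocystamine; potency is for inhibitors of MsrA activity on DMSO substrate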
Mitochondrial peptide methionine sulfoxide reductase, sequence (P54149 whole entry): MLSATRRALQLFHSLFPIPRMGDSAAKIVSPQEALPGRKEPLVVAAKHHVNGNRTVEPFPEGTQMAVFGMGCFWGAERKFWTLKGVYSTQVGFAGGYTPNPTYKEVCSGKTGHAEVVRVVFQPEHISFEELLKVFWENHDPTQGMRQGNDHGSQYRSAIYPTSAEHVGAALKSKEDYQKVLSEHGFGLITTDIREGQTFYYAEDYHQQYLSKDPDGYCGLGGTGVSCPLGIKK

[26] = target: Luciferin 4-monooxygenase (Photinus pyralis, UniProt P08659); assay: firefly luciferase enzyme inhibitors, dose response, biochemical, luminescence (AID 1891)
Luciferin 4-monooxygenase, sequence (P08659 whole entry): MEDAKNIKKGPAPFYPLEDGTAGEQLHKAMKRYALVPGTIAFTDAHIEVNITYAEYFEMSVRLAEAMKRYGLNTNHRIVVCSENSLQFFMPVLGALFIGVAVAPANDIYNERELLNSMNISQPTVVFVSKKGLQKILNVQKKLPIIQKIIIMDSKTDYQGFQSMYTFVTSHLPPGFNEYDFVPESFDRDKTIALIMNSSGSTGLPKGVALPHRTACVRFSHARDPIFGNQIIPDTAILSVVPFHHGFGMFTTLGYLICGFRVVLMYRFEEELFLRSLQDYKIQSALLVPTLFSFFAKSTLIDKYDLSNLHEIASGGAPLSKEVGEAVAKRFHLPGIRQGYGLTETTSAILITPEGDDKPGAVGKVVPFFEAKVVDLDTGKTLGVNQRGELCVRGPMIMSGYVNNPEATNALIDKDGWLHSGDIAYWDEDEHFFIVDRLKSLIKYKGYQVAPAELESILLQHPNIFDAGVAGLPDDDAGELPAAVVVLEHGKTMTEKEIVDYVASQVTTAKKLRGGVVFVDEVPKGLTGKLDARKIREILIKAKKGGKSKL

[27] = Luminescence Cell-Based Dose Confirmation HTS to Identify Inhibitors of Platelet Dense Granule Release. [Related pubchem assays: 1663 (Primary HTS), 1678 (Summary of Project)]; type: functional

Fructose-bisphosphate aldolase, sequence (P9WQA3 whole entry): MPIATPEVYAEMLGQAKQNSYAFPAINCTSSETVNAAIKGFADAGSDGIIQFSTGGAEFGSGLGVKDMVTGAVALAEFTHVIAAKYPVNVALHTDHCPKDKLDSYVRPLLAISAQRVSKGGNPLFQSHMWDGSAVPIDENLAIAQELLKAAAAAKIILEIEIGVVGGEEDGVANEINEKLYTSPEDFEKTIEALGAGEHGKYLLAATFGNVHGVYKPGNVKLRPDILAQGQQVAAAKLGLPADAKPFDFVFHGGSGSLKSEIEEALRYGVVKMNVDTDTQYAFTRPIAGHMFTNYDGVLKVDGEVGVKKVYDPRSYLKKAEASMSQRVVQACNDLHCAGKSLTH

CCS(=O)(=O)Nc1ccccc1C(N)=O
IC50 [1]: 2.58 µM (active)

Sc1ncnc2c1ncn2-c1ccc(Cl)cc1
IC50 [2]: 29.4 µM (inactive) | IC50 [3]: 6.29 µM (active) | IC50 [4]: 1.48 µM (active)

CC(=O)Nc1cc(-c2ccc(C(=O)NC3CC3)cc2)cn2c(-c3cccc(C(F)(F)F)c3)cnc12
AC50 (A549): 26.8 µM (active) | EC50 (Melanocortin receptor 4): > 89.2 µM (inactive)

O=C(N/N=C/c1ccc(F)cc1)c1cc(-c2ccc3c(c2)OCO3)[nH]n1
IC50 [2]: > 80 µM (inactive) | IC50 [3]: 5.14 µM (active) | EC50 (cells [5]): > 350 µM (not active) | IC50 [4]: 6.61 µM (active) | IC50 [6]: 9.8 µM (active) | EC50 (cells [7]): > 350 µM (not active)

O=C(CCCSc1ccc(Cl)cc1)Nc1ccccc1O
IC50 [8]: 24.1 µM (inactive) | IC50 [9]: 24.8 µM (inactive) | IC50 [10]: 158 nM (active)

CN(C)CCNC(=O)c1cccc(-c2cnc3c(NC=O)cc(-c4ccc(C(=O)N5CCOCC5)cc4)cn23)c1
AC50 [11]: 9.04 µM (active) | AC50 [12]: 47.8 µM (active)

O=C(CSc1nc(O)c2ccccc2n1)Nc1nc(-c2ccc(Br)cc2)cs1
CC50 (Vero [13]): 35.9 µM (active) | IC50 [14]: 5.12 µM (active)

COC(=O)CCCC1=CC2=CC(=O)C(C)(OC(=O)c3cccs3)C(=O)C2=CN1CCc1ccccn1 (centres undefined)
IC50 [15]: 20.9 µM (active) | IC50 [16]: 9.96 µM (active)

COc1ccc2ncccc2c1Cc1c(OC)ccc2ncccc12
IC50 [17]: 9.3 µM (active)

COC(=O)c1ccc2nc(-c3ccc(F)cc3)c(Cc3ccccc3OC)n2c1
AC50 (Vero [18]): 35.2 µM (active)

COc1cccc(N2CCN(CC(=O)Nc3ccc(-n4cnnn4)cc3)CC2)c1
IC50 (Steroidogenic factor 1): 6.28 µM (active)

C=CCn1c(S)nnc1C1CC1
IC50 (Beta-lactamase [19]): > 59.6 µM (inactive) | IC50 (Beta-lactamase [20]): > 59.6 µM (inactive) | IC50 (Beta-lactamase [21]): > 59.6 µM (inactive)

O=C(O)CC/C(=C\c1cc([N+](=O)[O-])ccc1Cl)c1nc2ccccc2s1
IC50 (Beta-lactamase [19]): > 59.6 µM (inactive) | IC50 (Beta-lactamase [20]): 43.1 µM (inactive) | IC50 (Beta-lactamase [21]): > 59.6 µM (inactive)

CCN1CCN(c2nn3c(=O)c4ccccc4nc3c3ccccc23)CC1
AC50 (Cytochrome P450 3A4): 20 µM (inconclusive) | AC50 [12]: 19.9 µM (active) | AC50 (Cytochrome P450 2D6): 14.1 µM (inconclusive)

COC(=O)CCCC1=CC2=C(c3ccccc3)C(=O)C(C)(OC(=O)C3CCCC3)C(=O)C2=CN1C1CCCCC1 (centres undefined)
IC50 [15]: 13 µM (active) | IC50 [16]: 6.2 µM (active)

CNc1cccc(-c2ccc(N3CCN(C)CC3)nc2)n1
IC50 [1]: 2.18 µM (active)

Cc1n[nH]c(-c2ccc(O)cc2O)c1Oc1ccccc1
CC50 [22]: 100 µM (active) | IC50 [23]: 34.2 µM (active) | IC50 [24]: 8.31 µM (active)

CCOC(=O)CC1(C)Sc2ccccc2N1S(=O)(=O)c1ccc(C)cc1 (centres undefined)
AC50 (Vero [18]): 28.5 µM (active)

COc1ccc2cc(-c3n[nH]cc3CN3CCCC3c3nonc3C)ccc2c1 (centres undefined)
IC50 [25]: 85.5 µM (inactive)

CCN(CC)c1ccc(/C=N/NC(=O)c2ccoc2C)cc1
CC50 [22]: 100 µM (active) | EC50 [26]: 1.42 µM (active) | EC50 [27]: 3.59 µM (active)
